# According to PubChem BioAssay (NCI):
#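 The compound was tested at five concentrations on cells cultured in 96-well plates, with a 48-hour exposure period. GI50 = concentration required for 50% inhibition of growth. Definition used: TGI = concentration required for complete inhibition of growth.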
# What was measured:
# Test in all cases: growth of human tumour cells (NCI), 48 h
# [1] = system: 786-0 renal
# [2] = system: A498 renal
# [3] = system: A549 NSCLC
# [4] = system: ACHN renal
# [5] = system: BT-549 breast
# [6] = system: CAKI-1 renal
# [7] = system: COLO 205 colon
# [8] = system: DU-145 prostate
# [9] = system: EKVX NSCLC
# [10] = system: HCC-2998 colon
# [11] = system: HCT-116 colon
# [12] = system: HCT-15 colon
# [13] = system: HL-60(TB) leukemia
# [14] = system: HOP-62 NSCLC
# [15] = system: HOP-92 NSCLC
# [16] = system: HS 578T breast
# [17] = system: HT29 colon
# [18] = system: IGROV1 ovarian
# [19] = system: K-562 leukemia
# [20] = system: KM12 colon
# [21] = system: LOX IMVI melanoma
# [22] = system: M14 melanoma
# [23] = system: MALME-3M melanoma
# [24] = system: MCF7 breast
# [25] = system: MDA-MB-231 breast
# [26] = system: MDA-MB-435
# [27] = system: MOLT-4 leukemia
# [28] = system: NCI-H226 lung
# [29] = system: NCI-H23 lung
# [30] = system: NCI-H460 lung
# [31] = system: NCI-H522 lung
# [32] = system: NCI/ADR-RES ovarian
# [33] = system: OVCAR-3 ovarian
# [34] = system: OVCAR-5 ovarian
# [35] = system: OVCAR-8 ovarian
# [36] = system: PC-3 prostate
# [37] = system: RPMI-8226 leukemia
# [38] = system: RXF 393 renal
# [39] = system: SF-268 CNS
# [40] = system: SF-295 CNS
# [41] = system: SF-539 CNS
# [42] = system: SK-MEL-2 melanoma
# [43] = system: SK-MEL-5 melanoma
# [44] = system: SK-OV-3 ovarian
# [45] = system: SN12C renal
# [46] = system: SNB-19 CNS
# [47] = system: SW-620 colon
# [48] = system: T-47D breast
# [49] = system: TK-10 renal
# [50] = system: U251 CNS
# [51] = system: UACC-257 melanoma
# [52] = system: UACC-62 melanoma
# [53] = system: UO-31 renal
compound,measurement,setting,value
COc1ccc(-n2c3c(c4c(CN(C)C)c(O)c(C)cc42)CCc2ccccc2C3=O)cc1,GI50,[1],29.7 µM
same,TGI,[1],> 100 µM
same,GI50,[2],60 µM
same,TGI,[2],> 100 µM
same,GI50,[3],55.6 µM
same,TGI,[3],> 100 µM
same,GI50,[4],47 µM
same,TGI,[4],> 100 µM
same,GI50,[5],14.4 µM
same,TGI,[5],> 100 µM
same,GI50,[6],24.5 µM
same,TGI,[6],> 100 µM
same,GI50,[7],> 100 µM
same,TGI,[7],> 100 µM
same,GI50,[8],21.4 µM
same,TGI,[8],> 100 µM
same,GI50,[9],44.5 µM
same,TGI,[9],> 100 µM
same,GI50,[10],23.4 µM
same,TGI,[10],67.8 µM
same,GI50,[11],34.4 µM
same,TGI,[11],> 100 µM
same,GI50,[12],28.7 µM
same,TGI,[12],> 100 µM
same,GI50,[13],12.3 µM
same,TGI,[13],43.6 µM
same,GI50,[14],40.8 µM
same,TGI,[14],> 100 µM
same,GI50,[15],41.9 µM
same,TGI,[15],> 100 µM
same,GI50,[16],48.2 µM
same,TGI,[16],> 100 µM
same,GI50,[17],> 100 µM
same,TGI,[17],> 100 µM
same,GI50,[18],21 µM
same,TGI,[18],85.2 µM
same,GI50,[19],18.7 µM
same,TGI,[19],44.4 µM
same,GI50,[20],21.1 µM
same,TGI,[20],63.9 µM
same,GI50,[21],17.1 µM
same,TGI,[21],45.2 µM
same,GI50,[22],26.9 µM
same,TGI,[22],97 µM
same,GI50,[23],25.4 µM
same,TGI,[23],> 100 µM
same,GI50,[24],> 100 µM
same,TGI,[24],> 100 µM
same,GI50,[25],25 µM
same,TGI,[25],90.1 µM
same,GI50,[26],14 µM
same,TGI,[26],40.4 µM
same,GI50,[27],22.9 µM
same,TGI,[27],65.7 µM
same,GI50,[28],28.3 µM
same,TGI,[28],> 100 µM
same,GI50,[29],14 µM
same,TGI,[29],69 µM
same,GI50,[30],69.1 µM
same,TGI,[30],> 100 µM
same,GI50,[31],13.4 µM
same,TGI,[31],50.7 µM
same,GI50,[32],17.9 µM
same,TGI,[32],45.2 µM
same,GI50,[33],34.2 µM
same,TGI,[33],97.2 µM
same,GI50,[34],35.2 µM
same,TGI,[34],> 100 µM
same,GI50,[35],31.6 µM
same,TGI,[35],> 100 µM
same,GI50,[36],11.7 µM
same,TGI,[36],50.3 µM
same,GI50,[37],15.5 µM
same,TGI,[37],47 µM
same,GI50,[38],16.1 µM
same,TGI,[38],75.6 µM
same,GI50,[39],61.9 µM
same,TGI,[39],> 100 µM
same,GI50,[40],35.6 µM
same,TGI,[40],> 100 µM
same,GI50,[41],26.9 µM
same,TGI,[41],> 100 µM
same,GI50,[42],48 µM
same,TGI,[42],> 100 µM
same,GI50,[43],21.5 µM
same,TGI,[43],68.8 µM
same,GI50,[44],> 100 µM
same,TGI,[44],> 100 µM
same,GI50,[45],29.6 µM
same,TGI,[45],> 100 µM
same,GI50,[46],> 100 µM
same,TGI,[46],> 100 µM
same,GI50,[47],32.5 µM
same,TGI,[47],> 100 µM
same,GI50,[48],> 100 µM
same,TGI,[48],> 100 µM
same,GI50,[49],47.2 µM
same,TGI,[49],> 100 µM
same,GI50,[50],28.3 µM
same,TGI,[50],> 100 µM
same,GI50,[51],78.1 µM
same,TGI,[51],> 100 µM
same,GI50,[52],30.6 µM
same,TGI,[52],> 100 µM
same,GI50,[53],45.9 µM
same,TGI,[53],> 100 µM
